Test results reported in US9107926B2, “Mutant selectivity and combinations of a phosphoinositide 3-kinase inhibitor compound and chemotherapeutic agents for the treatment of cancer” (Genentech, Inc., priority 2012, dated 2015).

Columns and labels:
Assay type in all cases: cell-based
[1] = tested on: FUOV1; test: CellTiter-Glo cell proliferation assay; conditions: Ovarian, WT
Experimental: (§1) Cell Culture Medium: RPMI or DMEM high glucose, 10% Fetal Bovine Serum, 2 mM L-Glutamine, P/S. Incubate O/N (overnight) at 37° C., 5% CO2.
(§2) Drug Addition to Cells, Cell Plate (1:10 dilution): Add 6 μl of media+compound directly to cells (54 μl of media on the cells already). Incubate 3 days at 37° C., 5% CO2 in an incubator that will not be opened often.
(§3) Day 5—Develop Plates, Thaw Cell Titer Glo Buffer at room temperature: Remove Cell Plates from 37° C. and equilibrate to room temperature for about 30 minutes. Add Cell Titer-Glo® Buffer to Cell Titer-Glo® Substrate (bottle to bottle). Add 30 μl Cell Titer-Glo® Reagent (Promega cat.#G7572) to each well of cells. Place on plate shaker for about 30 minutes. Read luminescence on Analyst HT Plate Reader (half second per well).

[2] = tested on: H1650; test: CellTiter-Glo cell proliferation assay; conditions: Homo sapiens, NCI-H1650, Lung(NSCLC), PTEN
[3] = tested on: HCC-202; test: CellTiter-Glo cell proliferation assay; conditions: HCC202, Breast, Helical-HET.545E > K, HET.866L > F, HET.391I > M
[4] = tested on: H1793; test: CellTiter-Glo cell proliferation assay; conditions: Homo sapiens, NCI-H1793, Lung(NSCLC), WT
[5] = tested on: C32; test: CellTiter-Glo cell proliferation assay; conditions: Homo sapiens, Melanoma, PTEN/B-Raf
[6] = tested on: Cal 85-1; test: CellTiter-Glo cell proliferation assay; conditions: Homo sapiens, Breast, WT
[7] = tested on: CAL120; test: CellTiter-Glo cell proliferation assay; conditions: Homo sapiens, CAL-120, Breast, WT
Experimental: as §1, §2, §3

[8] = tested on: H292; test: CellTiter-Glo cell proliferation assay; conditions: Homo sapiens, NCI-H292, Lung(NSCLC), K-RAS
[9] = tested on: H838; test: CellTiter-Glo cell proliferation assay; conditions: Homo sapiens, NCI-H838, Lung(NSCLC), WT
Experimental: as §1, §2, §3

[10] = tested on: IGROV1; test: CellTiter-Glo cell proliferation assay; conditions: Homo sapiens, IGROV-1, Ovarian, Kinase-HET.1069O > W
Experimental: as §1, §2, §3

[11] = tested on: H1703; test: CellTiter-Glo cell proliferation assay; conditions: Homo sapiens, NCI-H1703, Lung(NSCLC), WT
[12] = tested on: SKBR3; test: CellTiter-Glo cell proliferation assay; conditions: Homo sapiens, SK-BR-3, Breast, HER2 Amplified
Experimental: as §1, §2, §3

[13] = tested on: MFM223; test: CellTiter-Glo cell proliferation assay; conditions: Homo sapiens, MFM-223, Breast, Kinase-HET.1047H > R, HET.350D > N
Experimental: as §1, §2, §3

[14] = tested on: 888-MEL; test: CellTiter-Glo cell proliferation assay; conditions: Homo sapiens, Melanoma, B-Raf
[15] = tested on: MX-1; test: CellTiter-Glo cell proliferation assay; conditions: Homo sapiens, MX1, Breast, PTEN
Experimental: as §1, §2, §3

[16] = tested on: HCC-70; test: CellTiter-Glo cell proliferation assay; conditions: Homo sapiens, HCC70, Breast, PTEN
[17] = tested on: T47D; test: CellTiter-Glo cell proliferation assay; conditions: Homo sapiens, Breast, Kinase-HET.1047H > R, HET.350D > N
Experimental: as §1, §2, §3

[18] = tested on: Detroit562; test: CellTiter-Glo cell proliferation assay; conditions: Homo sapiens, Detroit 562, Head/Neck, Kinase-H1047R
[19] = tested on: G96; test: CellTiter-Glo cell proliferation assay; conditions: Glioma, WT
[20] = tested on: Caov3; test: CellTiter-Glo cell proliferation assay; conditions: Homo sapiens, Caov-3, Ovarian, WT
[21] = tested on: LS-180; test: CellTiter-Glo cell proliferation assay; conditions: Homo sapiens, LS180, Colon, KRAS/HET.1047H > R
[22] = tested on: ABC-1; test: CellTiter-Glo cell proliferation assay; conditions: Homo sapiens, Lung(NSCLC), WT
[23] = tested on: G22; test: CellTiter-Glo cell proliferation assay; conditions: Glioma, PTEN
[24] = tested on: SW1783; test: CellTiter-Glo cell proliferation assay; conditions: Homo sapiens, Glioma, PTEN
[25] = tested on: 22RV1; test: CellTiter-Glo cell proliferation assay; conditions: Homo sapiens, Prostate, Helical-HET.546Q > R
[26] = tested on: HCT116; test: CellTiter-Glo cell proliferation assay; conditions: Homo sapiens, HCT-116, Colon, KRAS/HET.1047H > R
[27] = tested on: BT549; test: CellTiter-Glo cell proliferation assay; conditions: Homo sapiens, BT-549, Breast, PTEN
[28] = tested on: OVCAR3; test: CellTiter-Glo cell proliferation assay; conditions: Homo sapiens, OVCAR-3, Ovarian, WT
[29] = tested on: LN-229; test: CellTiter-Glo cell proliferation assay; conditions: Homo sapiens, Glioma, Helical-HET.545E > K
[30] = tested on: SW948; test: CellTiter-Glo cell proliferation assay; conditions: Homo sapiens, Colon, KRAS/HOM.542E > K
[31] = tested on: MDA-MB-436; test: CellTiter-Glo cell proliferation assay; conditions: Homo sapiens, Breast, PTEN
[32] = tested on: H2122; test: CellTiter-Glo cell proliferation assay; conditions: Homo sapiens, NCI-H2122, Lung(NSCLC), K-RAS
[33] = tested on: HCC-1419; test: CellTiter-Glo cell proliferation assay; conditions: Homo sapiens, HCC1419, Breast, WT
[34] = tested on: cancer cell lines; test: cell proliferation assays across cancer cell lines (FIGS. 1-3, 12)
Excerpt: EC50 values were established for the experiments.

[35] = tested on: MDST8; test: CellTiter-Glo cell proliferation assay; conditions: Colon, PTEN/B-Raf
[36] = tested on: H460; test: CellTiter-Glo cell proliferation assay; conditions: Homo sapiens, NCI-H460, Lung(NSCLC), KRAS/HEt.545E > K
[37] = tested on: KPL4; test: CellTiter-Glo cell proliferation assay; conditions: Breast, Kinase-HET.1047H > R, HET.350D > N
Experimental: as §1, §2, §3

[38] = tested on: MO59J; test: CellTiter-Glo cell proliferation assay; conditions: Glioma, PTEN/KRAS
[39] = tested on: HOP92; test: CellTiter-Glo cell proliferation assay; conditions: Homo sapiens, HOP-92, Lung(NSCLC), WT
[40] = tested on: H1048; test: CellTiter-Glo cell proliferation assay; conditions: Homo sapiens, NCI-H1048, Lung(SC), Kinase-HET.1047H > R, HET.391I > M

Cc1nc(-c2cn3c(n2)-c2ccc(-c4cnn(C(C)(C)C(N)=O)c4)cc2OCC3)n(C(C)C)n1 [GDC-0032, 2-(4-(2-(1-isopropyl-3-methyl-1H-1,2,4-triazol-5-yl)-5,6-dihydrobenzo[f]imidazo[1,2-d][1,4]oxazepin-9-yl)-1H-pyrazol-1-yl)-2-methylpropanamide]
EC50 [1]: 62 nM
EC50 [2]: 1480 nM
EC50 [3]: 18 nM
EC50 [4]: 2020 nM
EC50 [5]: 5810 nM
EC50 [6]: 520 nM
EC50 [7]: 3840 nM
EC50 [8]: 274 nM
EC50 [9]: 3100 nM
EC50 [10]: 31 nM
EC50 [11]: 136 nM
EC50 [12]: 43 nM
EC50 [13]: 211 nM
EC50 [14]: 10000 nM
EC50 [15]: 892 nM
EC50 [16]: 43 nM
EC50 [17]: 45 nM
EC50 [18]: 58 nM
EC50 [19]: 201 nM
EC50 [20]: 4780 nM
EC50 [21]: 795 nM
EC50 [22]: 234 nM
EC50 [23]: 6020 nM
EC50 [24]: 3110 nM
EC50 [25]: 50 nM
EC50 [26]: 897 nM
EC50 [27]: 1200 nM
EC50 [28]: 398 nM
EC50 [29]: 3410 nM
EC50 [30]: 62 nM
EC50 [31]: 4690 nM
EC50 [32]: 366 nM
EC50 [33]: 46 nM
sensitivity of cancer cell lines with HER2 amplification versus those without HER2 amplification ([34]; EC50, cell proliferation assays): about 44 times
potency against PIK3CA mutant and HER2+ cells (comparison) ([34]; FIGS. 1A, 1B, 2A, 2B): more potent against PIK3CA mutant cells and HER2+ breast cancer cells than GDC-0941
EC50 [35]: 4010 nM
EC50 [36]: 603 nM
EC50 [37]: 16 nM
EC50 [38]: 5650 nM
EC50 [39]: 1690 nM
EC50 [40]: 14 nM
